Structures can show the parent of a compound that is named as a salt.
Assays:
IL-2 = experiment: Inhibition of IL-2 production (Jurkat cells activated with PHA, ELISA); format: cell-based; details: Homo sapiens, Jurkat, Jurkat/PHA/1% FBS
Protocol: Jurkat cells were placed in a 96 well plate (0.5 million cells per well in 1% FBS medium), and then a test compound of this invention was added at different concentrations. After 10 minutes, the cells were activated with PHA (final concentration 2.5 μg/mL) and incubated for 20 hours at 37° C. under 5% CO2. The final volume was 200 μL. Following incubation, the cells were centrifuged, and the supernatants collected and stored at −70° C. prior to assaying for IL-2 production. A commercial ELISA kit (IL-2 Eli-pair, Diaclone Research, Besancon, France) was used to detect production of IL-2, from which dose response curves were obtained. The IC50 value was calculated as the concentration at which 50% of maximum IL-2 production after stimulation was inhibited versus a non-stimulation control.

CRACM1/STIM1-CHOK1 = molecular target: T1, CRACM1/STIM1-CHOK1 (Homo sapiens, UniProt Q96D31); experiment: Patch clamp inhibition of ICRAC current in CRACM1/STIM1-CHOK1 cells; format: cell-based; details: at 500 nM, activity class
T1 construct: Full length human Stim1, CracM1, CracM2 and CracM3 cDNA; Stim1 induced with doxycycline
T1 sequence (Q96D31 whole entry): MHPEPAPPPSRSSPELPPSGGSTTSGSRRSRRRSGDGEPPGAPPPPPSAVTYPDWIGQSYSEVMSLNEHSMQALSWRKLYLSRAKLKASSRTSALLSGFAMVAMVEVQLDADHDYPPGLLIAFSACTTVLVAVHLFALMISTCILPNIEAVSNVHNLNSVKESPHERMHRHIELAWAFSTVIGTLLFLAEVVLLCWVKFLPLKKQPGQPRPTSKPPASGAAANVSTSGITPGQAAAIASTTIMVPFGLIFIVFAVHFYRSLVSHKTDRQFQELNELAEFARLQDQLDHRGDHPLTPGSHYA
Protocol: Manual patch clamp experiments are conducted in the tight-seal whole-cell configuration at room temperature (21-25° C.). Patch pipettes are fashioned from borosilicate glass capillary tubes and have resistances between 2-4 MO after filling with standard intracellular solution. High resolution current recordings are acquired with a computer-based patch clamp amplifier system (EPC-10, HEKA, Lambrecht, Germany). All voltages are corrected for a liquid junction potential of 10 mV between external and internal solutions with glutamate as the intracellular anion. Currents are filtered at 2.9 kHz and digitized at 10 μs intervals. Capacitive currents and series resistance are determined and corrected before each voltage ramp using the automatic capacitance compensation of the EPC-10.
In general, a whole cell patch clamp method is used to examine the effects of a compound of the invention on a channel(s) that mediates ICRAC. In such experiments, a baseline ICRAC measurement is established within the first 70 voltage ramps, or 140 seconds, for a patched cell. Then the cells are perfused with the compound to be tested and the effect of the compound on ICRAC is measured for at least an additional 440 to 500 seconds. A compound that modulates ICRAC (e.g., inhibits) is a compound that is useful in the invention for modulating CRAC ion channel activity.
Each compound is diluted from a 10 mM stock in series using DMSO. The final DMSO concentration is always kept at 0.1%.
ICRAC currents are measured using 50 msec voltage ramps between −100 mV to +100 mV. The voltage ramps are stimulated every 2 seconds for the first 70 sweeps, then every 5 seconds for the remainder of the experiment. The membrane potential is held at 0 mV between the test ramps. In a typical experiment, the peak inward currents will develop within 50-100 seconds. Once the ICRAC current is stabilized, the cells are perfused with a test compound in the extracellular solution for at least an additional 500 seconds.
Off-line analysis with the Heka PatchMaster software is used to separate the ICRAC membrane current from the cells basal background currents. In a typical recording, InsP3 stimulated ICRAC currents begin to develop in 6 to 12 seconds after whole cell is established. Therefore, the first 1-4 voltage ramps represent the basal membrane currents in the absence of ICRAC and the average value is subtracted from all subsequent traces. The current value at −80 mV for each ramp trace is then measured and plotted against time. The resulting current versus time data is exported into a Microsoft Excel spreadsheet. The % ICRAC inhibition in each cell is calculated by comparing the amount of current just prior to the compound perfusion to the amount of current after the cells has been perfused with the compound for 440-500 seconds. The IC50 value and Hill coefficient for each compound is estimated by fitting all the individual data points to a single-site Hill equation.
TREx™-CHO cells were transfected with human Stim1 (recombinant DNA in pcDNA4/TO/myc-His™ A with a myc epitope tag in the N-terminal) and either CracM1, CracM2 or CracM3 (recombinant DNA in pcDNA 3.1 with a HA epitope tag in the N-terminal). Stably expressing cells were selected by growing the transfected cells in antibiotics for two to three weeks. Individual cell clones were isolated via serial dilution. […]

Compound	IC50 (IL-2; activity class)	inhibition at 0.5 µM (CRACM1/STIM1-CHOK1)	IC50 (IL-2; numeric values)
CC1=C(c2cnc(NC(=O)c3c(F)cccc3F)cn2)CN(c2nc(C)cs2)CC1 [Compound 1, 2,6-difluoro-N-(5-(4-methyl-1-(4-methylthiazol-2-yl)-1,2,5,6-tetrahydropyridin-3-yl)pyrazin-2-yl)benzamide]	50 to 100 nM	70 to 100%	
CC1=C(c2cnc(NC(=O)c3c(F)cccc3F)cn2)CN(S(=O)(=O)N(C)C)CC1 [Compound 2]	> 100 nM	70 to 100%	
CC1=C(c2ccc(NC(=O)c3cccc(F)c3F)cc2)CN(c2nccs2)CC1 [Compound 11, 2,3-difluoro-N-(4-(4-methyl-1-(thiazol-2-yl)-1,2,5,6-tetrahydropyridin-3-yl)phenyl)benzamide]	< 50 nM	70 to 100%	
CC1=C(c2ccc(NC(=O)c3ccncc3C)cc2)CN(c2nccnc2Cl)CC1 [Compound 14, N-(4-(1-(3-chloropyrazin-2-yl)-4-methyl-1,2,5,6-tetrahydropyridin-3-yl)phenyl)-3-methylisonicotinamide]	< 50 nM	50 to 70%	
CC1=C(c2ccc(NC(=O)c3ccncc3F)cc2)CN(c2nccnc2Cl)CC1 [Compound 15, N-(4-(1-(3-chloropyrazin-2-yl)-4-methyl-1,2,5,6-tetrahydropyridin-3-yl)phenyl)-3-fluoroisonicotinamide]	< 50 nM	50 to 70%	
CC1=C(c2cnc(NC(=O)c3c(C)cccc3F)cn2)CN(c2ncc(C)s2)CC1 [Compound 50, 2-fluoro-6-methyl-N-(5-(4-methyl-1-(5-methylthiazol-2-yl)-1,2,5,6-tetrahydropyridin-3-yl)pyrazin-2-yl)benzamide]			37 nM
CC1=C(c2ccc(NC(=O)c3c(Cl)cncc3Cl)cc2)CN(c2ccccn2)CC1 [Compound 51, 3,5-dichloro-N-(4-(4-methyl-1-(pyridin-2-yl)-1,2,5,6-tetrahydropyridin-3-yl)phenyl)isonicotinamide]			37 nM
CC1=C(c2cnc(NC(=O)c3cccc(F)c3C)cn2)CN(c2ncc(C)s2)CC1 [Compound 52, 3-fluoro-2-methyl-N-(5-(4-methyl-1-(5-methylthiazol-2-yl)-1,2,5,6-tetrahydropyridin-3-yl)pyrazin-2-yl)benzamide hydrochloride]			40 nM
CC1=C(c2ccc(NC(=O)c3cc(F)ccc3C)nc2)CN(c2nnn(C)n2)CC1 [Compound 53, 5-fluoro-2-methyl-N-(5-(4-methyl-1-(2-methyl-2H-tetrazol-5-yl)-1,2,5,6-tetrahydropyridin-3-yl)pyridin-2-yl) benzamide]			40 nM
CC1=C(c2ccc(NC(=O)c3c(F)cccc3F)cc2)CN(c2nc(Cl)cs2)CC1 [Compound 54, N-(4-(1-(4-chlorothiazol-2-yl)-4-methyl-1,2,5,6-tetrahydropyridin-3-yl)phenyl)-2,6-difluorobenzamide]			40 nM
CC1=C(c2ccc(NC(=O)c3c(Cl)cncc3Cl)cc2)CN(c2ncccc2F)CC1 [Compound 55, 3,5-dichloro-N-(4-(1-(3-fluoropyridin-2-yl)-4-methyl-1,2,5,6-tetrahydropyridin-3-yl)phenyl)isonicotinamide]			41 nM
Cn1nnc(N2CCC(Cl)=C(c3ccc(NC(=O)c4c(F)cccc4Cl)cc3)C2)n1 [Compound 56, 2-chloro-N-(4-(4-chloro-1-(2-methyl-2H-tetrazol-5-yl)-1,2,5,6-tetrahydropyridin-3-yl)phenyl)-6-fluorobenzamide]			41 nM
CC1=C(c2ccc(NC(=O)c3c(C)cccc3Cl)cc2)CN(c2nnn(C)n2)CC1 [Compound 57, 2-chloro-6-methyl-N-(4-(4-methyl-1-(2-methyl-2H-tetrazol-5-yl)-1,2,5,6-tetrahydropyridin-3-yl)phenyl) benzamide]			41 nM
CC1=C(c2ccc(NC(=O)c3c(F)cccc3F)cc2)CN(c2cnccn2)CC1 [Compound 58, 2,6-difluoro-N-(4-(4-methyl-1-(pyrazin-2-yl)-1,2,5,6-tetrahydropyridin-3-yl)phenyl)benzamide]			44 nM
CC1=C(c2cnc(NC(=O)c3c(F)cccc3F)cn2)CN(c2nc(-c3cccnc3)cs2)CC1 [Compound 59, 2,6-difluoro-N-(5-(4-methyl-1-(4-(pyridin-3-yl)thiazol-2-yl)-1,2,5,6-tetrahydropyridin-3-yl)pyrazin-2-yl)benzamide]			44 nM
COc1cc(F)c(C(=O)Nc2cnc(C3=C(C)CCN(c4ncccc4F)C3)cn2)c(F)c1 [Compound 60, 2,6-difluoro-N-(5-(1-(3-fluoropyridin-2-yl)-4-methyl-1,2,5,6-tetrahydropyridin-3-yl)pyrazin-2-yl)-4-methoxybenzamide]			46 nM
C=CCOC(=O)N1CCC(C)=C(c2ccc(NC(=O)c3c(F)cccc3F)cc2)C1 [Compound 61, allyl 3-(4-(2,6-difluorobenzamido)phenyl)-4-methyl-5,6-dihydropyridine-1(2H)-carboxylate]			46 nM
Cn1nnc(N2CCC(Cl)=C(c3cnc(NC(=O)c4cc(F)ccc4Cl)cn3)C2)n1 [Compound 62, 2-chloro-N-(5-(4-chloro-1-(2-methyl-2H-tetrazol-5-yl)-1,2,5,6-tetrahydropyridin-3-yl)pyrazin-2-yl)-5-fluorobenzamide]			49 nM
CC1=C(c2cnc(NC(=O)c3ccc(F)cc3Cl)cn2)CN(c2ncccc2F)CC1 [Compound 63, 2-chloro-4-fluoro-N-(5-(1-(3-fluoropyridin-2-yl)-4-methyl-1,2,5,6-tetrahydropyridin-3-yl)pyrazin-2-yl) benzamide]			49 nM
CC1=C(c2ccc(NC(=O)c3c(F)cccc3F)cc2)CN(S(=O)(=O)N(C)C)CC1 [Compound 64, N-(4-(1-(N,N-dimethylsulfamoyl)-4-methyl-1,2,5,6-tetrahydropyridin-3-yl)phenyl)-2,6-difluorobenzamide]			49 nM
